Experimental data from patent publication US20060106064A1, “Butyrophenones and sigma-1 receptor antagonists protect against oxidative-stress” (University of North Texas Health Science Center at Fort …, priority 2004, published 2006).
Entries after “also recorded” stand apart in the source; their conditions may differ. Like-named read-outs stand apart in the source and are kept apart here.

Key:
HT-22 cells = assay: in vitro protection assay, glutamate-induced oxidative stress HT-22 cell model (Calcein AM cell survival)
human Sigma-1 receptor = molecular target: T1, human Sigma-1 receptor (Homo sapiens, UniProt Q99720); assay: [3H]-(+)-pentazocine binding to MCF-7 cells stably expressing the cloned human Sigma-1 receptor; details: for affinity for the Sigma-1 receptor in words: FIG. 6
T1 construct: expressed in transfected cells

[1] = system: ferric chloride-induced lipid peroxidation in rat brain membranes; assay: ferric chloride-induced lipid peroxidation in rat brain membranes (antioxidant activity); format: biochemical; details: even very high concentrations
Procedure: […]. Antioxidant activity was measured by the ability of compounds to prevent ferric chloride-induced lipid peroxidation in rat brain membranes. The antioxidant ZYC5 is a known antioxidant control. […]. In summary, in vitro protection against glutamate-induced oxidative stress in HT-22 cells is mediated by antagonism of Sigma-1 receptors.

[2] = system: stroke (ICD-9 433, 434, 435)
NMDA receptors = details: cited from earlier work
[3] = system: tMCAO induced brain injury; assay: transient middle cerebral artery occlusion (tMCAO) ischemic stroke model, infarct volume by triphenyltetrazolium staining; format: in vivo, rat; details: 0.05 mg/kg acute, immediately after induction of 60 minute occlusion, ovariectomized female Sprague-Dawley rats, assessed 24 hrs after the stroke
[4] = Mus musculus, HT-22, read-out: Potency (EC50 ± SEM, nM)
[5] = Table 4, read-out: Affinity for the cloned Sigma-1 receptor (Ki ± SEM)
[6] = Table 2, receptor target screen
[7] = read-out: Potency (EC50 ± SEM), Table 2, receptor target screen
[8] = read-out: Potency (EC50 ± SEM), Table 5
[9] = protection against oxidative stress induced by 20 mM glutamate, Table 1
[10] = read-out: Potency (EC50 ± SEM nM), Table 4
[11] = patients with CABG in 1997, N = 11,444

T1 sequence (Q99720 whole entry): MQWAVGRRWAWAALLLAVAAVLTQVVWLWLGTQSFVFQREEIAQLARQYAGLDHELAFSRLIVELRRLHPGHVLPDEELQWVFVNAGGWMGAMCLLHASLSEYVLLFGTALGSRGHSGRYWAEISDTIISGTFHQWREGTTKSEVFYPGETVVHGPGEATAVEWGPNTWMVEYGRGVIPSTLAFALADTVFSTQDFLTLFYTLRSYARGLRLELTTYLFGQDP

| SMILES | in vitro protection in words (HT-22 cells; FIGS. 2, 3 and 6) | EC50 (HT-22 cells; [4]) [nM] | Efficacy ± SEM (HT-22 cells; Table 4) | Efficacy ± SEM (HT-22 cells; [6]) | Efficacy ± SEM (HT-22 cells; [9]) | further results |
| --- | --- | --- | --- | --- | --- | --- |
| O=C(CCCN1CCC(O)(c2ccc(Cl)cc2)CC1)c1ccc(Cl)cc1 [Chlorohaloperidol, 1-(4-chlorophenyl)-4-[4-(4-chlorophenyl)-4-hydroxy-1-piperidyl]-butan-1-one] | high potency protection | 4.3 ± 1.7 | 64 ± 3.4 | – | – | Ki (human Sigma-1 receptor): 1.5 ± 0.36 nM; affinity for the Sigma-1 receptor in words (human Sigma-1 receptor): high affinity |
| O=C(CCCN1CCC(O)(c2ccc(Br)cc2)CC1)c1ccc(F)cc1 [Bromperidol, 4-[4-(4-bromophenyl)-4-hydroxy-1-piperidyl]-1-(4-fluorophenyl)-butan-1-one] | high potency protection | 0.95 ± 0.82 | 67 ± 9.8 | – | – | affinity for the Sigma-1 receptor in words (human Sigma-1 receptor): high affinity; Ki (human Sigma-1 receptor; [5]): 1.2 ± 0.21 nM |
| CCC(Oc1ccc(Cl)cc1)C(=O)OC1CC2CCC(C1)N2C (centres unmarked) [SM-21] | no protective effect | – | – | 0 | – | EC50 (HT-22 cells; [7]): > 1000 nM; EC50 (HT-22 cells; [8]): > 1000 nM |
| CN1CCN(C2=Nc3ccccc3Oc3ccc(Cl)cc32)CC1 [Loxapine] | – | > 1000 | – | – | 0 | – |
| O=c1[nH]c2ccccc2n1C1CCN(CCCC(c2ccc(F)cc2)c2ccc(F)cc2)CC1 [Pimozide] | – | > 1000 | – | 0 | – | EC50 (HT-22 cells; Mus musculus, HT-22, read-out: In vitro Protective Potency (EC50 ± SEM, nM)): > 1000 nM |
| OCCN1CCN(CCCN2c3ccccc3Sc3ccc(C(F)(F)F)cc32)CC1 [Flupenazine] | – | – | – | – | 0 | EC50 (HT-22 cells; read-out: Potency (EC50 ± SEM), protection against oxidative stress induced by 20 mM glutamate, Table 1): > 1000 nM |
| O=C(CCCN1CCC(n2c(=O)[nH]c3ccccc32)CC1)c1ccc(F)cc1 [Benperidol, 1-[1-[4-(4-fluorophenyl)-4-oxo-butyl]-4-piperidyl]-3H-benzoimidazol-2-one] | do not provide potent protection | 1160 ± 498 | 66 ± 23 | – | – | Ki (human Sigma-1 receptor): 252 ± 42 nM; affinity for the Sigma-1 receptor in words (human Sigma-1 receptor): nor do they have high affinity |
| OC(CCCN1CCC(O)(c2ccc(Cl)cc2)CC1)c1ccc(F)cc1 (centres unmarked) | high potency protection | – | 58 ± 5.6 | – | – | EC50 (HT-22 cells; [10]): 12.9 ± 12.2 nM; affinity for the Sigma-1 receptor in words (human Sigma-1 receptor): high affinity |
| Cc1cccc(C(=O)NCN2CCN(c3ccccc3C#N)CC2)c1 [PD168077] | – | – | – | 0 | – | EC50 (HT-22 cells; [7]): > 1000 nM |
| CN(C)CCCN1c2ccccc2Sc2ccc(Cl)cc21 [Chlorpromazine] | – | > 1000 | – | – | 0 | – |
| CN1CCN(C2=Nc3cc(Cl)ccc3Nc3ccccc32)CC1 [Clozapine] | – | – | – | – | 0 | – |
| CSc1ccc2c(c1)N(CCC1CCCCN1C)c1ccccc1S2 (centres unmarked) [Thioridazine] | – | – | – | – | 0 | – |
| CCN1CCC[C@H]1CNC(=O)c1c(O)c(Cl)cc(Cl)c1OC [S-(−)-Raclopride] | no neuroprotection | > 1000 | – | 0 | 0 | EC50 (HT-22 cells; [7]): > 1000 nM |
| OCCN1CCN(CCCN2c3ccccc3Sc3ccc(Cl)cc32)CC1 [Perphenazine] | – | > 1000 | – | – | 0 | – |
| O=C(c1ccc(F)cc1)C1CCN(CCn2c(=O)[nH]c3ccccc3c2=O)CC1 [Ketanserin] | – | > 1000 | – | 0 | – | – |
| CN(C)CC/C=C1/c2ccccc2Sc2ccc(Cl)cc21 [Chlorprothixene] | – | > 1000 | – | – | 0 | – |
| CN1CCN(CCc2ccc(Cl)c(Cl)c2)CC1 [BD1063] | – | – | 61 ± 7.5 | 61 ± 7.5 | – | Efficacy ± SEM (HT-22 cells; Table 5): 61 ± 7.5; EC50 (HT-22 cells; [10]): 5.9 ± 3.5 nM; EC50 (HT-22 cells; [7]): 5.9 ± 3.5 nM; EC50 (HT-22 cells; [8]): 5.9 ± 3.5 nM; Ki (human Sigma-1 receptor; [5]): 3.1 ± 1.4 nM; Ki (human Sigma-1 receptor; Table 5, own value, read-out: Affinity for the Sigma-1 receptor (Ki)): 3.1 nM |
| O=C(CCCN1CCC(O)(c2ccc(Cl)cc2)CC1)c1ccc(F)cc1 [Haloperidol, 4-[4-(4-chlorophenyl)-4-hydroxy-1-piperidyl]-1-(4-fluorophenyl)-butan-1-one] | strong neuroprotection; also recorded: high potency protection | – | 65 ± 2.5 | – | 65 ± 2.5 | antioxidant activity (prevention of lipid peroxidation) [1]: failed to prevent ferric chloride-induced peroxidation of brain lipids; B (logistic regression coefficient for stroke) ([2]; full model N = 145,576): −0.464; B (logistic regression coefficient for stroke) [2, 11]: −0.926; decrease of risk of stroke ([2]; patients with CABG surgery in 1997, significant only at the 0.07 level): about 60%; affinity of NMDA receptors for haloperidol (NMDA receptors): > 1 µM; reduction in infarct volume [3]: 50% |
| O=C(CCCN1CCC2(CC1)C(=O)NCN2c1ccccc1)c1ccc(F)cc1 [Spiperone, 8-[4-(4-fluorophenyl)-4-oxo-butyl]-1-phenyl-1,3,8-triazaspiro[4.5]decan-4-one] | do not provide potent protection | – | 100 | – | – | affinity for the Sigma-1 receptor in words (human Sigma-1 receptor): nor do they have high affinity; Ki (human Sigma-1 receptor; [5]): 1050 ± 334 nM |
| CN1CCN2c3ncccc3Cc3ccccc3C2C1 (centres unmarked) [Mirtazapine] | – | > 1000 | – | 0 | – | – |
| CC(=O)CC(c1ccccc1)c1c(O)c2ccccc2oc1=O (centres unmarked) [Coumadin] | – | – | – | – | – | B (logistic regression coefficient for stroke) ([2]; full model N = 145,576): 1.018; Odds Ratio for stroke ([2]; full model N = 145,576): 2.769; times more likely to have a stroke during the year ([2]; general model): about 2.7 times; B (logistic regression coefficient for stroke) [2, 11]: 0.849; Odds Ratio for stroke [2, 11]: 2.337 |
| O=C(CCCN1CC=C(n2c(=O)[nH]c3ccccc32)CC1)c1ccc(F)cc1 [Droperidol, 1-[1-[4-(4-fluorophenyl)-4-oxo-butyl]-3,6-dihydro-2H-pyridin-4-yl]-3H-benzoimidazol-2-one] | do not provide potent protection | 5270 ± 2230 | 100 | – | – | – |
| OC1(c2ccc(Cl)cc2)CCN(Cc2c[nH]c3ccccc23)CC1 [L741626] | – | – | – | 0 | – | EC50 (HT-22 cells; [7]): > 1000 nM |
| OC1(c2ccc(Cl)c(C(F)(F)F)c2)CCN(CCCC(c2ccc(F)cc2)c2ccc(F)cc2)CC1 [Penfluridol, 1-[4,4-bis(4-fluorophenyl)butyl]-4-[4-chloro-3-(trifluoromethyl)phenyl]-piperidin-4-ol] | moderate protective potency | – | 80 ± 20 | – | – | EC50 (HT-22 cells; [10]): 350 ± 246 nM; affinity for the Sigma-1 receptor in words (human Sigma-1 receptor): moderate affinity; Ki (human Sigma-1 receptor; [5]): 53 ± 15 nM |
| Clc1ccc(N2CCN(Cc3c[nH]c4ncccc34)CC2)cc1 [L745870, 3-((4-(4-Chlorophenyl)piperazin-1-yl)-methyl)-1H-pyrrolo-2,3-b-pyridine] | – | – | – | – | – | Efficacy ± SEM (HT-22 cells): 50 ± 9.6; EC50 (HT-22 cells; read-out: In vitro Protective Potency (EC50 ± SEM)): 895 ± 736 nM; EC50 (HT-22 cells; read-out: Potency (EC50 ± SEM nM)): 895 ± 736 nM; EC50 (HT-22 cells; read-out: Potency (EC50 ± SEM)): 895 ± 736 nM |
| O=C(CCCN1CCC(O)(c2cccc(C(F)(F)F)c2)CC1)c1ccc(F)cc1 [Trifluperidol, 1-(4-fluorophenyl)-4-[4-hydroxy-4-[3-(trifluoromethyl)phenyl]-1-piperidyl]-butan-1-one] | – | 7.5 ± 6.3 | – | – | – | Efficacy ± SEM (HT-22 cells): 55 ± 3.0; in vitro protection in words (HT-22 cells): high potency protection; affinity for the Sigma-1 receptor in words (human Sigma-1 receptor): high affinity |
| Cc1nc2n(c(=O)c1CCN1CCC(c3noc4cc(F)ccc34)CC1)CCCC2 [Risperidone] | – | – | – | – | 0 | – |
| Cc1c(C2CCN(CCc3ccccc3)CC2)noc1-c1ccc(Cl)cc1 [L741742, 5-(4-Chlorophenyl)-4-methyl-3-(l-(2-phenylethyl)piperidin-4-yl)isoxazole] | – | – | 61 ± 2.7 | 61 ± 2.7 | – | EC50 (HT-22 cells; read-out: In vitro Protective Potency (EC50 ± SEM), Table 3): 1.2 ± 0.82 nM; EC50 (HT-22 cells; [10]): 1.2 ± 0.82 nM; EC50 (HT-22 cells; [7]): 1.2 ± 0.82 nM; Ki (human Sigma-1 receptor; [5]): 4.8 ± 0.41 nM |
| Clc1ccc2c(c1)C(N1CCNCC1)=Nc1ccccc1O2 [Amoxapine] | – | – | – | 0 | – | – |
| O=C(OCCN1CCOCC1)C1(c2ccccc2)CCCCC1 [PRE-084] | – | – | – | 0 | – | EC50 (HT-22 cells; [7]): > 1000 nM; EC50 (HT-22 cells; [8]): > 1000 nM |
